Laboratory results published in patent US7994113B2, “βGBP, compositions comprising βGBP, and related methods and uses thereof” (priority 2007, dated 2011).
Where two headings read alike, the source gives them in different places.

What was measured:
activated T cells = conditions: Rabinovich et al., 1997, 1998, 1999; cited from earlier work
akt mRNA = experiment: Northern blot analysis of akt mRNA; assay type: cell-based; conditions: for akt mRNA level: 30 nM Hu-r-βGBP
[1] = tested on: MCF-7 breast cancer cells; experiment: Growth rate of naïve MCF-7 cells; assay type: cell-based
[2] = tested on: MCF10A mammary ductal cells; experiment: Growth rate and Annexin V apoptosis of naïve MCF10A cells; assay type: cell-based
ERK = assay type: cell-based
MCF-7^CTx cells = assay type: cell-based
[3] = tested on: breast cancer, ovarian cancer, oral cancer, prostate cancer and leukaemia cells; experiment: Screen of pro-apoptotic responses to βGBP in a range of cancer types; assay type: cell-based
Procedure: As described above βGBP is known to inhibit growth and/or promote apoptosis in cells from a range of cancer types.
In breast cancer, ovarian cancer, oral cancer, prostate cancer and leukaemia cells tested for pro-apoptotic responses to βGBP, the effective dose in cell culture was 15-30 nM.

Akt = experiment: Western blot of phosphorylated (Ser473) Akt and total Akt protein; assay type: cell-based; conditions: 30 nM Hu-r-βGBP
Procedure: Western blot analysis: Cells were lysed in 50 mM Tris pH7.4. 150 mM NaCl, 1% TritonX-100, 1 mMPMSF, 2.5 μg/ml leupeptin, 1% aprotinin, 10 mM sodium fluoride, 1 mM sodium vanadate (Sigma, UK). 50 μg of protein were loaded onto 12% polyacrylamide gels. Phosphorylated Akt was detected using 1:1000 anti-phospho-Akt (Ser473) antibody (Cell Signalling Technology, Boston, Mass.) and total Akt1/2 protein was probed with 1:1000 anti-Akt1/2 (H136) (Santa Cruz, Santa Cruz, Calif.). Secondary antibodies conjugated to horseradish peroxidase (HRP) (GE Healthcare, UK) were used at 1:1000 dilution and visualised by enhanced chemiluminescence (GE Healthcare, UK). Actin (Sigma, UK) was used as a loading control.

MCF10A^CTx cells = assay type: cell-based
class IA PI3K = experiment: PI3 kinase assay: immunoprecipitated enzyme from treated cells, PIP3 by competitive ELISA; assay type: cell-based; conditions: for PI3K activity: 30 nM Hu-r-βGBP
SW620 colon cancer cells = experiment: Growth rate of SW620 colon cancer cells with Hu-r-βGBP; assay type: cell-based
Procedure: (§1) To confirm these observations three colon cancer cell lines were investigated, SW480, SW620 and LoVo. Cells were grown in culture and incubated with βGBP at varying concentrations. […] Concentrations as low as 1-2 nM have been observed as effective in inducing apoptosis (FIG. 6). It is possible that in some circumstances even lower concentrations of βGBP may be effective.
(§2) Cell culture: SW480, SW620 and LoVo colon cancer cells were grown in Leibowitz L-15 medium with 10% fetal bovine serum in sealed flasks at 37° C. Hu-r-βGBP was added 3 hrs after seeding cells at a concentration of 1 nM or 2 nM. Control cells were grown without βGBP.
(§3) Growth rates: Cell numbers were measured over a time course of 5 days. Cell numbers were assessed at 0, 1, 2, 3, 4, and 5 days for each cell type incubated in the presence of Hu-r-βGBP. Cell numbers were assessed in triplicate by counting in a haemocytometer as discussed above in Example 1 and compared with cell numbers for control cells grown without βGBP.

[4] = tested on: SKBR3 breast cancer cells; experiment: Growth rate and apoptosis of SKBR3 cells treated with Hu-r-βGBP; assay type: cell-based; conditions: Hu-r-βGBP 15 or 30 nM added at hour 3 after seeding
Procedure: (§4) Cell culture: BT474 cells were cultured in DMEM/F12 medium with 10% fetal calf serum (FCS) (Invitrogen, UK) and 20 μg/ml insulin (Sigma, UK); the SKBR3 cells were grown in DMEM medium (Invitrogen UK) plus 10% FCS. Cultures were incubated at 37° C. in a humidified atmosphere of 5% CO2 in air.
(§5) 1×10^5 cells were seeded per 25 cm^2 flask, or 3×10^5 per 75 cm^2 flask. Sufficient numbers of flasks were seeded in parallel to allow for individual flasks to be consumed in the process of monitoring cell numbers (i.e. growth rates), apoptosis, PI3K activity, akt mRNA levels, Akt protein levels and phosphorylated Akt (P-Akt) protein levels as discussed below. Unless otherwise indicated results correspond to one flask of cells.
(§6) Growth rates: Cells were removed from the flasks by trypsinisation and counted in a haemocytometer to assess cell numbers at time points of 1, 2, 3, 4, and 5 days for BT474 cells, SKBR3 cells, MCF10A^V12Ras cells and MCF10A^CTx cells. MCF10A cells were monitored at 1, 2, 3, and 4 days. Cell numbers were determined in triplicate. […]
(§7) Cytofluorimetry: Apoptosis was monitored using four criteria as outlined below. […]
(§8) Redistribution of plasma membrane phosphatidylserine was assessed using Annexin V-FITC (Pharmingen, San Diego, Calif.). […]
(§9) Caspase 3 activity was measured by cleavage of non fluorescent PhiPhiLux to a fluorescent product (OncoImmunin, Mass.). […]

[5] = tested on: ST4 (Human malignant T cell leukaemia) cells; experiment: ST4 tumour growth in SCID mice, subcutaneous βGBP; assay type: in vivo; conditions: SCID mice injected s.c. with 5×10^6 ST4 cells; Hu-r-βGBP s.c. day 1 to day 16
Procedure: 5×10^6 ST4 (Human malignant T cell leukaemia) cells were injected subcutaneously at day 0. Hu-r-βGBP was administered from day 1 to day 16 by subcutaneous injection.
Female SCID mice were housed under standard conditions. Mice were divided into four groups of four. At age 6 weeks 5×10^6 ST4 (Human malignant T cell leukaemia) cells were injected subcutaneously (day 0).
Hu-r-βGBP was obtained as described in Example 1.
βGBP was administered from day 1 to day 16 by individual daily subcutaneous injection. Each group of mice received a different dosage of βGBP. 0 ng/mouse (control), 20 ng/mouse, 200 ng/mouse or 400 ng/mouse
Tumour size was assessed at day 42 or day 90 by calliper measurement.

LoVo colon cancer cells = experiment: Growth rate of LoVo colon cancer cells with Hu-r-βGBP; assay type: cell-based
Procedure: as §1, §2, §3

[6] = tested on: BT474 breast cancer cells; experiment: Growth rate and apoptosis of BT474 cells treated with Hu-r-βGBP; assay type: cell-based; conditions: Hu-r-βGBP 15 or 30 nM added at hour 3 after seeding
Procedure: as §4, §5, §6, §7, §8, §9

MCF10A^V12Ras cells = experiment: Growth rate and Annexin V apoptosis of MCF10A^V12Ras cells; assay type: cell-based; conditions: Hu-r-βGBP 15 or 30 nM added at hour 3
SW480 colon cancer cells = experiment: Growth rate of SW480 colon cancer cells with Hu-r-βGBP; assay type: cell-based
Procedure: as §1, §2, §3

[7] = MCF10A, MCF10A^V12Ras and MCF10A^CTx cells

## GAL-1: homodimers formed from βGBP, a complex with lectin-like characteristics
Activated T cells
  threshold concentration for apoptotic activity: 4 µg/mL

## cholera toxin [reference compound]
Akt mRNA
  akt gene expression: accentuated akt gene expression
  akt mRNA levels: more markedly expressed
[1]
  cell proliferation: accelerated cell proliferation
[2]
  cell proliferation: boosted
ERK
  active ERK levels: raised active ERK levels

## βGBP: Human recombinant β-galactoside binding protein expressed in E. coli; negative cell cycle regulator, anti-proliferative cytokine
MCF-7^CTx cells
  cell death in response to βGBP: succumbed to total death ahead of the naive counterparts
[3]
  effective dose in cell culture for pro-apoptotic responses: 15 to 30 nM
Akt; BT474 and SKBR3 cells, preceded the apoptotic process
  phosphorylated Akt and Akt protein: loss of phosphorylated Akt, and loss of Akt protein
Akt; [7]
  Akt function (phosphorylated Akt and total Akt protein): loss of Akt function
MCF10A^CTx cells
  response of cell proliferation to βGBP: abrupt cell death after 2-3 cell replication cycles
Class IA PI3K; BT474 and SKBR3 cells, already present at hour six, maintained throughout observation
  PI3K activity: downregulation of PI3K activity
Class IA PI3K; MCF10A, MCF10A^V12Ras and MCF10A^CTx cells, delay from 6 to 24 hours with V12 Ras
  PI3K activity: brought down and maintained PI3K activity below basal levels
Class IA PI3K; MCF-7^CTx cells, 20 nM Hu-r-βGBP, 10 nM wortmannin or 20 nM LY294002 added at hour 3 from seeding
  decrease of PI3K activity below basal levels at which akt gene expression was negated: ~35%
SW620 colon cancer cells; SW620 cells, Hu-r-βGBP added 3 hrs after seeding, 5 days
  concentration effective in inducing apoptosis: 1 to 2 nM
SW620 colon cancer cells; SW620 colon cancer cells versus other cancer cell lines
  effective concentration relative to other cancer cell lines (times lower): 15 to 30 times
Akt mRNA; BT474 and SKBR3 cells, within one day from addition
  akt mRNA level: virtually undetectable
Akt mRNA; [7]
  akt mRNA level: virtual absence of akt mRNA
Akt mRNA; MCF-7^CTx cells, 20 nM Hu-r-βGBP
  akt gene expression: negated
[4]
  effect on cell replication and cell death: virtually no effect on cell replication until, after 2-3 generation cycles, abrupt cell death was triggered
[5]
  appearance of tumours: totally prevent the appearance of tumours
[1]; naïve MCF-7 cells, 20 nM Hu-r-βGBP added at hour 3
  effect on cell growth: growth inhibitory effect
[2]; naïve MCF10A cells, Hu-r-βGBP 15 or 30 nM added at hour 3
  response of cell proliferation to βGBP: minor effect
[2]; naïve normal-like MCF10A cells, 30 nM Hu-r-βGBP, Annexin V at day three
  apoptosis after inhibition of PI3K activity and loss of akt gene function: did not lead to apoptosis
LoVo colon cancer cells; LoVo cells, Hu-r-βGBP added 3 hrs after seeding, 5 days
  concentration effective in inducing apoptosis: 1 to 2 nM
LoVo colon cancer cells; LoVo colon cancer cells versus other cancer cell lines
  effective concentration relative to other cancer cell lines (times lower): 15 to 30 times
[6]
  effect on cell replication and cell death: virtually no effect on cell replication until, after 2-3 generation cycles, abrupt cell death was triggered
MCF10A^V12Ras cells
  response of cell proliferation to βGBP: abrupt cell death after 2-3 cell replication cycles
SW480 colon cancer cells; SW480 cells, Hu-r-βGBP added 3 hrs after seeding, 5 days
  concentration effective in inducing apoptosis: 1 to 2 nM
SW480 colon cancer cells; SW480 colon cancer cells versus other cancer cell lines
  effective concentration relative to other cancer cell lines (times lower): 15 to 30 times
ERK
  ERK phosphorylation: no changes in ERK phosphorylation
